Measured values from article PMC12455637, “Functionalizing Nisin with a Sugar Moiety Improves Its Solubility and Results in an Altered Antibacterial Spectrum and Mode of Action” (ACS Synthetic Biology, 2025).
≈ marks a conversion by molar mass, not a printed value. Ends that are not written are not given here.

Key:
[1] = system: Enterococcus faecium LMG16003 (VRE); assay type: cell-based; settings: broth microdilution, inoculum ~5 × 10^5 CFU/mL, overnight 37 °C, HPLC-purified peptides
Description: (§1) The minimal inhibitory concentration (MIC) values were assessed through broth microdilution following standard guidelines. The inoculum was adjusted to around 5 × 10^5 CFU/mL. MIC was characterized as the lowest concentration of the antimicrobial substance at which no visible growth was observed following overnight incubation at 37 °C.

[2] = system: Staphylococcus aureus LMG15975 (MRSA); assay type: cell-based; settings: broth microdilution, inoculum ~5 × 10^5 CFU/mL, overnight 37 °C, HPLC-purified peptides
Description: as §1

[3] = system: E. faecium; assay type: cell-based, Enterococcus faecium; settings: agar well diffusion, 30 μL of 1 mg/mL
Description: 2 Production of single-Met containing nisin and nisin variants labeled with Met, Hpg or Hpg–Glc and their antibacterial activity against E. faecium strain. (a) Quantification of fully modified nisin variants labeled with Met or Hpg using HPLC as per Schmitt et al. (b) Evaluation of the antimicrobial efficacy of nisin and its variants against E. faecium through agar well diffusion assay. Each trial was repeated 3 times. The relative activity was determined by measuring inhibition zone diameters in millimeters, calculated as the area of the zone (πr ^2) minus the area of the well (πr ^2) in millimeters.
(§2) An overnight culture was added at a concentration of 0.1% (v/v) to molten GM17 agar (for E. faecium and E. faecalis) or LB agar (for S. aureus and B. cereus) at 45 °C, and then 30 mL of this mixture was poured onto a plate. After the agar solidified, wells of 8 mm were created by punching in the agar and filled with 30 μL of a 1 mg/mL lantibiotic solution. If needed, lantibiotics were activated by adding 3 μL of 1 mg/mL NisP directly to the well. The quantity of nisin was determined using HPLC as previously outlined. The agar plate was then incubated at 37 °C overnight, and the zones of inhibition were measured. The presented data results from three independent experiments. Zone diameters were measured in millimeters and recorded as the area of the zone (πr ^2) minus the area of the well (πr ^2) in millimeters.

[4] = system: S. aureus; assay: Agar well diffusion assay; assay type: cell-based, Staphylococcus aureus; settings: HPLC-purified peptides
Description: as §2

[5] = system: B. cereus; assay: Agar well diffusion assay; assay type: cell-based, Bacillus cereus; settings: HPLC-purified peptides
Description: as §2

[6] = system: Enterococcus faecalis; assay: Agar well diffusion assay; assay type: cell-based; settings: HPLC-purified peptides
Description: as §2

[7] = Solubility at neutral pH; assay type: physicochemical
Description: Highest solubility at pH 7 was obtained for nisin Z mutant M31K (7–8 mg/mL). The covalent modification of a therapeutic peptide or protein with sugar units is an established strategy to enhance drug solubility and bioavailability. The N-terminal segment of nisin contains a relatively high proportion of hydrophobic residues, while the C-terminal portion is more hydrophilic, featuring positively charged lysine and histidine side chains (Figure e). Attaching a hydrophilic sugar moiety to the C-terminal region of nisin therefore may not substantially alter its amphiphilic nature. To assess the solubility of nisin and its new variants at neutral pH, wild-type nisin or nisin(M21V)–Gal were added to a 50 mM PBS buffer solution (pH 7.2) at room temperature until precipitation occurred (Figure S7a). After equilibration, the concentration of dissolved nisin in the saturated solution was determined using high-performance liquid chromatography (HPLC).
Wild-type nisin (product code: 0305, Handary, Belgium) or nisin(M21V)–Gal was added to a 50 mM PBS buffer solution until precipitation occurred. Equilibrium was established by continuous shaking for 30 min, followed by centrifugation for 3 min at 15,000g. The concentration of the saturated nisin solution was determined using HPLC. […]

[8] = system: lipid II; assay: Spot-on-lawn assay of peptide-lipid II complex formation; assay type: cell-based, Enterococcus faecium; settings: lipid II 300 μM, 2 μL spotted at edge of inhibition zone, E. faecium lawn, overnight 37 °C
Description: To assess the interaction between the peptide and lipid II, an overnight culture of E. faecium was added to 0.8% GM17 (w/v) at 45 °C with a final concentration of 0.1% (v/v), and the mixture was then poured into 10 mL plates. The binding of the peptide to lipid II was further examined by spotting purified lipid II (300 μM, 2 μL) at the periphery of the antibiotic inhibition zone. In brief, antimicrobials were applied to the agar plate. Once the antimicrobial solution drops had dried, lipid II was spotted at the edge of the inhibition zone. After the drops had dried, the plates were incubated overnight at 37 °C.

[9] = system: E. faecium; assay: Time-kill assay; assay type: cell-based, Enterococcus faecium
Description: The antimicrobial effectiveness of nisin, nisin(1–22), and nisin(M21V)–Gal was assessed using a method previously described by Guo et al. , In summary, an overnight culture of E. faecium was diluted 50 times in GM17 medium and cultured at 37 °C. The bacteria were grown until reaching an optical density at 600 nm (OD600) of 0.5, and then the cell concentration was adjusted to 5 × 10^5 colony-forming units per milliliter (CFU/mL). Following this, the bacteria were exposed to a 5-fold MIC of each peptide. An untreated cell suspension was used as a control. At specific time intervals, 50 μL samples were taken, and both undiluted and 10-fold serially diluted suspensions were plated on GM17 agar. The plates were then incubated overnight at 37 °C, and the resulting colonies were counted and expressed as CFU/mL. Each experiment was conducted in triplicate.

[10] = system: E. faecium; assay: Potassium ion efflux assay (PBFI probe); assay type: cell-based, Enterococcus faecium; settings: various peptide concentrations, up to 32 times MIC; 10 mM HEPES pH 7.2, 0.5% glucose, 10 μM PBFI
Description: To conduct the K^+ release assay, the K^+-specific fluorescent probe PBFI was utilized. E. faecium was cultured in GM17 medium until it reached an OD600 of 0.6, at which point the cells were harvested (5000g, 5 min) and washed twice with 10 mM HEPES (pH 7.2) containing 0.5% glucose. The cells were then suspended in the same buffer supplemented with 10 μM PBFI. Data analysis was carried out using a Varioskan LUX Multimode Microplate Reader (Thermo Fisher Scientific), with cell excitation at 346 nm and fluorescence emission measurement at 505 nm to establish a baseline signal before the introduction of varying concentrations of antibiotics. Nisin was utilized as the positive control in this study.

[11] = system: E. faecium cells; assay: Membrane potential, DiSC3(5) probe; assay type: cell-based, Enterococcus faecium; settings: different concentrations, 2 μM DiSC3(5), monitored 25 min, three replicates
Description: To assess the membrane potential, the membrane potential-sensitive fluorescent dye DiSC3(5) was employed. E. faecium was grown to an OD600 of 0.8, then centrifuged at 5000g for 5 min and washed twice in 10 mM HEPES with 10 mM glucose (pH 7.2). The cell density was adjusted to an OD600 of 0.2 and loaded with 2 μM DiSC3(5) dye, followed by a 20 min incubation in darkness to stabilize the probe fluorescence. Subsequently, the cell suspension was transferred to a 96-well microplate and incubated for 5 min with 100 mM KCl. Antibiotics were then introduced at a varied concentration, and the fluorescence was monitored for 25 min. The excitation and emission wavelengths on the fluorescence spectrometer were set to 622 and 670 nm, respectively. Three replicates were conducted, and a representative example is presented.

[12] = system: Staphylococcus epidermidis; settings: ref citation number not printed (Twomey et al. by title); cited from earlier work
Text: Recently, we introduced the Met analog Aha at position 17 and used click chemistry to ...

Molecule | MIC [1] | MIC [2] | antibacterial activity in words [3] | activity compared to wild-type nisin or Hpg-labeled nisin(M21V) [4] | activity compared to wild-type nisin or Hpg-labeled nisin(M21V) [5] | activity compared to wild-type nisin or Hpg-labeled nisin(M21V) [6] | solubility thermodynamic at 30 min ([7]; aqueous buffer, thermodynamic from solid, thermodynamic, solid added until precipitation, 50 mM PBS pH 7.2, room temperature, shaking 30 min, centrifugation 3 min 15,000g, HPLC at 226 nm against nisin standard curve, repeated 3 times) | solubility, times higher compared to wild-type nisin ([7]; neutral pH, 50 mM PBS pH 7.2, room temperature) | effect of externally added purified lipid II on antimicrobial activity / lipid II binding [8] | bacteriostatic or bactericidal nature ([9]; 5-fold MIC against E. faecium) | reduction in bacterial population ([9]; 5-fold MIC, after 3 h of incubation, start 5 × 10^5 CFU/mL, triplicate) | potassium ion release (PBFI fluorescence) [10] | membrane depolarization (DiSC3(5) fluorescence) [11] | influence of M17 mutation on antimicrobial activity [12]
C=C(NC(=O)[C@@H](NC(=O)[C@H](Cc1c[nH]cn1)NC(=O)[C@@H](NC(=O)[C@H](CO)NC(=O)[C@@H]1CS[C@@H](C)[C@H]2NC(=O)[C@H](C)NC(=O)[C@H](NC(=O)[C@H](CCCCN)NC(=O)[C@@H](NC(=O)[C@H](CC(N)=O)NC(=O)[C@@H]3CS[C@@H](C)[C@@H](NC(=O)[C@H](CCCCN)NC(=O)[C@@H]4CS[C@@H](C)[C@@H](NC(=O)[C@@H]5CSC[C@@H](NC(=O)/C(=C/C)NC(=O)[C@@H](N)[C@@H](C)CC)C(=O)N[C@@H]([C@@H](C)CC)C(=O)NC(=C)C(=O)N[C@@H](CC(C)C)C(=O)N5)C(=O)N5CCC[C@H]5C(=O)NCC(=O)N4)C(=O)NCC(=O)N[C@@H](C)C(=O)N[C@@H](CC(C)C)C(=O)N[C@@H](CCc4cn(C[C@H]5OC(O)[C@H](O)[C@@H](O)[C@H]5O)nn4)C(=O)NCC(=O)N3)C(C)C)[C@H](C)SC[C@H](NC2=O)C(=O)N[C@@H](Cc2c[nH]cn2)C(=O)N1)[C@@H](C)CC)C(C)C)C(=O)N[C@@H](CCCCN)C(=O)O (some centres unmarked) [nisin(M21V)–Gal] | 3.8 µg/mL (≈ 1.08 µM) | 15.19 µg/mL (≈ 4.33 µM) | retained high potency | reduced activity | reduced activity | significantly lower activity | 8600 µg/mL (≈ 2450 µM) | 3.9 times | maintained its capacity to bind to lipid II | bactericidal activity | thousand-fold | did not demonstrate this effect | lost the ability to induce membrane depolarization | –
M17Q: literature nisin mutant with M17Q mutation (ITSISLCTPGCKTGALQGCNMKTATCHCSIHVSK; cysteine pairing not given here; also: lantibiotic nisin-A; UniProt P13068 24-57, looked up, variant M17Q) | – | – | – | – | – | – | – | – | – | – | – | – | – | enhanced effectiveness
